This is an account of results in patent US20060205640A1, “Papillosin antimicrobial peptide, a gene coding said peptide, a vector, a transformed organism and a compound containing said organism” (priority 2003, published 2006).

One test relates to E. coli. Format: cell-based. To be noted: gram-negative bacteria, 18 hours incubation, Mueller Hinton. The procedure:
(§1) Complementary tests were carried out in order to determine the spectrum of activity of papillosin. The minimal bactericidal concentration (MBC) for each bacterial strain tested is determined as follows: The peptide is placed in a solution containing 0.01% acetic acid and 0.2% bovine serum albumin (BSA), then, serial dilutions of 2 in [sic—and?] 2 are realized in the same 0.01% solution of acetic acid and 0.2% BSA. 10 μl of each dilution are incubated in sterile 96-well plates (Becton Dickinson, USA, ref: 18572) in the presence of 100 μl of a bacterial suspension brought to an optical density of 0.001 at 600 nm in the Mueller Hinton environment (MHB, SIGMA, ref: M-9677).
(§2) The bacterial growth is monitored after 18 hours of incubation under agitation. The MBC is determined by spreading out the content of the first three wells in which no bacterial growth was observed; this spreading out was carried out on Petri dishes on which an agar was poured prepared from the Mueller Hinton environment. These dishes were then incubated 18 hours. The MBC corresponds to the lowest concentration of peptide for which no bacterial colony was observed on the incubated dishes.

The subject of the next test is S. aureus. Format: cell-based. To be noted: gram-positive bacteria, 18 hours incubation, Mueller Hinton. The procedure: as §1, §2

No end group written: not given here.

Take “GFWKKVGSAAWGGVKAAAKGAAVGGLNALAKHIQ [papillosin]”: the MBC with E. coli was in the range of 0.25 to 0.5 µM; in the test with S. aureus it was 0.5 to 1 µM.
